Patent US4772684A, “Peptides affecting blood pressure regulation” (Triton Biosciences, Inc., priority 1988, dated 1988)
Each block holds one molecule with its values, some of them ahead of it. Non-standard residues stand in square brackets, D forms with d. Residues, ends and D or L forms follow the SMILES beside them.

Columns and labels:
angiotensin II receptors = assay: Inhibition of radiolabeled angiotensin II binding to isolated hepatic receptor; parameters: species or system rabbit; settings: for ID50 (concentration of peptide that inhibited binding of radiolabeled angiotensin II by 50%): 0.25 nM [125I]angiotensin II, partially purified solubilized rabbit liver receptor, 60 minutes at 20° C.
Procedure: Inhibition of angiotensin II binding to angiotensin II receptors by peptides of this invention was measured through the use of radioactive angiotensin II. Rabbit livers were homogenized and centrifuged in order to isolate particles sedimenting between 1,000 and 100,000×g. A portion of the particles which binds angiotensin II was solubilized with 1% digitonin, followed by ammonium sulfate fractionation between 49 and 65% saturation, followed by DEAE-cellulose chromatography at pH 7.5 using a linear gradient between 0.0 and 0.3 M KCl. The partially purified, solubilized receptor preparation bound 17 pmoles of angiotensin II per mg of protein when analyzed by Scatchard analysis, indicating a purity of approximately 0.1%.
The assay for binding of angiotensin II to the receptor was as follows: The complete system (150 μl) contained 30 mM Tris-HCl, pH 7.5, 2.5 mM K2 EDTA, 0.2 mM PCMS, 0.25 nM [^125 I]angiotensin II (ca. 100,000 cpm), 100 μg BSA, 0.25% (v/v) Brij 99 (a polyoxyethylene ether of a fatty alcohol) and 30 μg of partially purified receptor. The reaction was initiated by addition of the receptor and samples were incubated for 60 minutes at 20° C. The reaction was terminated with 1 ml of cold 0.5% charcoal/0.05% dextran in 100 mM Tris-HCl, pH 7.5. Tubes were vortexed and then allowed to stand 10 minutes at 4° C., after which they were centrifuged and their supernatants, containing protein-bound angiotensin II, were counted.
The complete system under these conditions regularly yields about 10,000 cpm of bound radioactivity. […] A sample including 20 nM cold angiotensin II was also run. Residual binding of radioactivity in this control was 35-45%. Certain peptides of this invention were dissolved in water, except for Peptide 5, which was dissolved in 3% DMSO, 0.04 M acetic acid, and 0.05 M HCl in water.

[1] = test system: isolated rabbit aorta strips; assay: Contractile response of isolated arterial smooth muscle strips in muscle bath; format: cell-based; settings: cumulative addition
Procedure: (§1) The peptides of this invention were tested in vitro, using an assay of isolated rabbit aorta strips mounted in a muscle bath.
(§2) The left anterior descending coronary artery was excised from the heart and cut helically into a strip under a dissecting microscope. Strips were mounted vertically on a glass holder in a tissue bath containing 50 ml of PSS. The upper end of each strip was connected to a force transducer. The bathing medium was maintained at 37° C. and aerated with a mixture of 95% O2 -5% CO2. The pH of the PSS was 7.2 and the composition, in mmoles/l, was as follows: NaCl 130, KCl 14.7, KH2 PO4 1.18, MgSO4 7H2 O 1.17, CaCl2 -2H2 O 1.6, […] 14.9, dextrose 5.5, and CaNa2 EDTA 0.03. In all experiments, the passive force on each strip was adjusted to 2,000 mg.
In one set of experiments, peptides were tested for ability to stimulate contractile response. Peptide was added to the bath in a step-wise, cumulative manner. Three peptides were tested: angiotensin II., Peptide 2 and Peptide 5. Muscle strips from between 2 and 6 rabbits were used to test each peptide.

[2] = test system: AII-stimulated contraction of isolated rabbit aorta strips; assay: Peptide effect on AII-stimulated contraction of arterial muscle strips; format: cell-based; settings: AII 10^-9 M
Procedure: as §1
as §2, with “Strips” for “The left anterior descending coronary artery was excised from the heart and cut helically into a strip under a dissecting microscope. Strips”
In another set of experiments, the ability of peptides to increase or decrease contraction caused by angiotensin II was measured.
The muscle strips were bathed in PSS containing AII, 10^-9 M. Strips were allowed to contract until a steady-state contraction was reached (^~8 minutes), then peptide was added in a step-wise. cumulative manner. The change in muscle strip contraction was measured after each addition of peptide, and more peptide was not added until contraction had stabilized from the previous peptide addition (10-15 minutes). Each peptide was tested in strips from 2 or 4 rabbits.
A positive value indicates increased contraction, while a negative value represents a decreased contractile response.

dog femoral vein = assay: Angiotensin II-caused relaxation of isolated dog venous strips; format: cell-based; settings: angiotensin II 3×10^-7 M
Procedure: Peptide 2 of this invention was tested in vitro, using an assay of isolated dog venous strips mounted in a muscle bath. Isolated segments of the dog femoral vein (n=2) were mounted in organ baths for measurement of isometric force generation. The conditions were as described in Example 3. The vascular segments were made to contract in response to prostaglandin F2a (8.5×10^-7 M). After the contraction reached a plateau, angiotensin II (3×10^-7 M) was added to the organ bath and the venous segments relaxed to approximately 50% of the response to prostaglandin F2a. This relaxation response to angiotensin II was inhibited 100% by saralasin ([…]) and by Peptide 2 (10^-5 M).

rat hypertension model = assay: Blood pressure in anesthetized rats (rat hypertension model); format: in vivo
Procedure: Peptide 2 of this invention was tested in vivo, using a rat hypertension model. Adult male rats (n=4) were anesthetized with sodium pentobarbital (50 mg/kg) and the left jugular vein was cannulated for infusion of drugs. Bolus injections of angiotensin II were delivered via the same venous catheter. The right carotid artery was cannulated for measurement of blood pressure. Injection of angiotensin II (1 ng) caused an increase in mean arterial blood pressure (^~ 50 mm Hg).

[3] = test system: isolated rabbit aorta strips; assay: Saralasin block of AII contraction and peptide-stimulated contraction in muscle strips; format: cell-based; settings: saralasin 10^-8 M; AII 10^-9 M

Molecule: CC(C)[C@H](NC(=O)[C@H](C)NC(=O)[C@H](Cc1ccc(O)cc1)NC(=O)[C@@H](NC(=O)[C@H](CC(=O)O)NC(=O)[C@@H](NC(=O)CNC(=O)[C@@H](N)CCCCN)C(C)C)C(C)C)C(=O)O [Peptide 1, NH2 - LYS-GLY-VAL-ASP-VAL-TYR-ALA-VAL-COOH] (H-KGVDVYAV-OH)
ID50 (concentration of peptide that inhibited binding of radiolabeled angiotensin II by 50%) (angiotensin II receptors): 4,000 nM

Molecule: CC[C@H](C)[C@H](NC(=O)[C@H](Cc1ccc(O)cc1)NC(=O)[C@@H](NC(=O)CNC(=O)[C@@H](N)CCCCN)C(C)C)C(=O)N[C@@H](Cc1c[nH]cn1)C(=O)N[C@@H](C)C(=O)N[C@@H](CC(C)C)C(=O)O [Peptide 2, NH2LYSGLYVALTYRILEHISALALEUCOOH] (H-KGVYIHAL-OH)
ID50 (concentration of peptide that inhibited binding of radiolabeled angiotensin II by 50%) (angiotensin II receptors): 8 to 14 nM
Average Baseline Response ([1]; 3 × 10^-7 M): 0 mg
Average Baseline Response ([1]; 3 × 10^-8 M): 0 mg
Average Baseline Response ([1]; 3 × 10^-9 M): 0 mg
Average Baseline Response ([1]; 3 × 10^-10 M): 0 mg
Average Baseline Response ([1]; 10^-6 M): 0 mg
Average Baseline Response ([1]; 10^-7 M): 0 mg
Average Baseline Response ([1]; 10^-8 M): 0 mg
Average Baseline Response ([1]; 10^-9 M): 0 mg
% Change from AII Response ([2]; peptide 3 × 10^-5 M): -73%
% Change from AII Response ([2]; peptide 3 × 10^-6 M): 0%
% Change from AII Response ([2]; peptide 10^-4 M): -83%
% Change from AII Response ([2]; peptide 10^-5 M): -18%
% Change from AII Response ([2]; peptide 10^-6 M): 0%
Inhibition of relaxation response to angiotensin II (dog femoral vein; 10^-5 M): 100%
Effect on baseline blood pressure (rat hypertension model; infusion 0.1 to 0.5 mg/min): did not alter baseline blood pressure
Effect on pressor responses to angiotensin II (rat hypertension model; infusion 0.1 to 0.5 mg/min, angiotensin II 1 ng): did not influence pressor responses to angiotensin II

Molecule: CSCC[C@H](NC(=O)[C@H](CC(=O)O)NC(=O)[C@@H](NC(=O)CNC(=O)[C@@H](N)CCCCN)C(C)C)C(=O)N[C@@H](Cc1c[nH]cn1)C(=O)N[C@@H](C)C(=O)N[C@@H](CC(C)C)C(=O)O [Peptide 3, NH2LYSGLYVALASPMETHISALALEUCOOH] (H-KGVDMHAL-OH)
ID50 (concentration of peptide that inhibited binding of radiolabeled angiotensin II by 50%) (angiotensin II receptors): 5,000 nM

Molecule: CC[C@H](C)[C@H](NC(=O)[C@H](Cc1ccc(O)cc1)NC(=O)[C@@H](NC(=O)CNC(=O)[C@@H](N)CCCCN)C(C)C)C(=O)N[C@@H](Cc1c[nH]cn1)C(=O)N[C@@H](C)C(=O)N[C@@H](CC(C)C)C(N)=O [Peptide 7, NH2LYSGLYVALTYRILEHISALALEUCONH2] (H-KGVYIHAL-NH2)
ID50 (concentration of peptide that inhibited binding of radiolabeled angiotensin II by 50%) (angiotensin II receptors): 40 to 160 nM

Molecule: CC[C@H](C)[C@H](NC(=O)[C@H](Cc1ccc(O)cc1)NC(=O)[C@@H](NC(=O)CNC(=O)[C@H](CCCCN)NC(C)=O)C(C)C)C(=O)N[C@@H](Cc1c[nH]cn1)C(=O)N[C@@H](C)C(=O)N[C@@H](CC(C)C)C(N)=O [Peptide 9] (Ac-KGVYIHAL-NH2)
ID50 (concentration of peptide that inhibited binding of radiolabeled angiotensin II by 50%) (angiotensin II receptors): 2,400-3,100 nM

Molecule: CNCC(=O)N[C@@H](CCCN=C(N)N)C(=O)N[C@H](C(=O)N[C@@H](Cc1ccc(O)cc1)C(=O)N[C@H](C(=O)N[C@@H](Cc1cnc[nH]1)C(=O)N1CCC[C@H]1C(=O)N[C@@H](C)C(=O)O)C(C)C)C(C)C [saralasin]
Effect on AII contraction [3]: decreased AII contraction
Inhibition of relaxation response to angiotensin II (dog femoral vein; 10^6 M (so in the source)): 100%
Effect on pressor activity of angiotensin II (rat hypertension model; constant infusion 1 mg/min, angiotensin II 1 ng): inhibited the pressor activity of angiotensin II

More lines, main results first:

ID50 (concentration of peptide that inhibited binding of radiolabeled angiotensin II by 50%) (angiotensin II receptors): > 10,000 nM
Molecule: CC[C@@H](C)[C@@H](NC(=O)[C@@H](Cc1ccc(O)cc1)NC(=O)[C@H](NC(=O)CNC(=O)[C@H](N)CCCCN)C(C)C)C(=O)N[C@H](Cc1c[nH]cn1)C(=O)N[C@H](C)C(=O)N[C@H](CC(C)C)C(=O)O [Peptide 11, NH2LYSGLYVALTYRILEHISALALEUCOOH] (H-[dK]G[dV][dY][dI][dH][dA][dL]-OH)
% Change from AII Response ([2]; peptide 3 × 10^-5 M): -7%
% Change from AII Response ([2]; peptide 3 × 10^-6 M): -3%
% Change from AII Response ([2]; peptide 10^-4 M): -33%
% Change from AII Response ([2]; peptide 10^-5 M): -5%
% Change from AII Response ([2]; peptide 10^-6 M): 0%

ID50 (concentration of peptide that inhibited binding of radiolabeled angiotensin II by 50%) (angiotensin II receptors): 5,000 nM
Molecule: CC(C)[C@H](NC(=O)[C@@H]1CCCN1C(=O)[C@H](Cc1c[nH]cn1)NC(=O)[C@@H](NC(=O)[C@H](CC(=O)O)NC(=O)[C@@H](NC(=O)CNC(=O)[C@@H](N)CCC(N)=O)C(C)C)C(C)C)C(=O)O [Peptide 12, NH2GLNGLYVALASPVALHISPROVALCOOH] (H-QGVDVHPV-OH)

ID50 (concentration of peptide that inhibited binding of radiolabeled angiotensin II by 50%) (angiotensin II receptors): 6 nM
Molecule: CSCC[C@H](NC(=O)[C@H](Cc1ccc(O)cc1)NC(=O)[C@@H](NC(=O)CNC(=O)[C@@H](N)CCCCN)C(C)C)C(=O)N[C@@H](Cc1c[nH]cn1)C(=O)N[C@@H](CO)C(=O)N[C@@H](CC(C)C)C(=O)O [Peptide 13, NH2LYSGLYVALTYRMETHISSERLEUCOOH] (H-KGVYMHSL-OH)

ID50 (concentration of peptide that inhibited binding of radiolabeled angiotensin II by 50%) (angiotensin II receptors): 12 to 15 nM
Residual binding of radioactivity (angiotensin II receptors; 20 nM cold angiotensin II): 35-45%
Molecule: Angiotensin II (DRVYIHPF; Angiotensin-2; UniProt P01019 25-32, looked up) [an octapeptide formed from angiotensin I by angiotensin converting enzyme; causes blood vessel constriction, reference compound]
Average Baseline Response ([1]; 3 × 10^-8 M): 2,613 mg
Average Baseline Response ([1]; 3 × 10^-9 M): 2,332 mg
Average Baseline Response ([1]; 3 × 10^-10 M): 991 mg
Average Baseline Response ([1]; 3 × 10^-11 M): 0 mg
Average Baseline Response ([1]; 10^-8 M): 2,562 mg
Average Baseline Response ([1]; 10^-9 M): 1,726 mg
Average Baseline Response ([1]; 10^-10 M): 0 mg
Average Baseline Response ([1]; 10^-11 M): 0 mg
Relaxation of venous segments, as % of the response to prostaglandin F2a (dog femoral vein; prostaglandin F2a 8.5×10^-7 M): approximately 50%
Increase in mean arterial blood pressure (rat hypertension model; bolus injection 1 ng, jugular vein, anesthetized rats): ~ 50 mm Hg
